Measurements published in the supplement of paper PMC10307832.

Compound: Nc1ccn([C@@H]2O[C@H](CO)[C@@H](O)C2(F)F)c(=O)n1 [Gemcitabine] + CC(=O)Nc1cccc(-n2c(=O)n(C3CC3)c(=O)c3c(Nc4ccc(I)cc4F)n(C)c(=O)c(C)c32)c1 [Trametinib] (partner 0.02 µM)
Assay: relative viability (nuclei count vs DMSO), 5 days (fraction); higher = more cells survive
Method in brief: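 Lung cancer cell lines were seeded in 1536-well plates and dosed by pin tool the next day, with either a single drug or a fixed anchor-drug dose combined with five library-drug doses (not always all listed) spaced in √10 steps. Five days later, one step fixed the cells and stained their nuclei (final 0.05% Triton X-100, 1% formaldehyde, 1 ug/ml Hoechst), and nuclei were counted on 4× images. Relative viability is the nuclei count in treated wells divided by the count in vehicle wells, and each value is the median of duplicate plates.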

| Cell Line | relative viability (first compound 0.001 µM) | relative viability (first compound 0.003162 µM) | relative viability (first compound 0.01 µM) | relative viability (first compound 0.03162 µM) | relative viability (first compound 0.1 µM) |
| --- | --- | --- | --- | --- | --- |
| 201T | 0.753 | 0.714 | 0.736 | 0.691 | 0.324 |
| A-427 | 0.704 | 0.799 | 0.521 | 0.356 | 0.223 |
| BEN | 1.02 | 0.615 | 0.311 | 0.245 | 0.226 |
| CAL-12T | 0.234 | 0.356 | 0.323 | 0.223 | 0.193 |
| COR-L23 | 0.584 | 0.656 | 0.248 | 0.116 | 0.099 |
| COR-L 105 | 0.418 | 0.463 | 0.364 | 0.367 | 0.345 |
| ChaGo-K-1 | 0.897 | 0.757 | 0.461 | 0.189 | 0.155 |
| EKVX | 0.394 | 0.243 | 0.13 | 0.161 | 0.11 |
| EMC-BAC-2 | 0.938 | 0.941 | 0.524 | 0.284 | 0.273 |
| EPLC-272H | 0.301 | 0.301 | 0.248 | 0.18 | 0.106 |
| H3255 | 0.608 | 0.517 | 0.514 | 0.318 | 0.271 |
| HARA | 0.592 | 0.635 | 0.797 | 0.143 | 0.107 |
| HCC-15 | 0.369 | 0.383 | 0.363 | 0.196 | 0.0914 |
| HCC-44 | 1.11 | 1.02 | 1.02 | 0.895 | 0.42 |
| HCC-78 | 0.749 | 0.42 | 0.373 | 0.274 | 0.231 |
| HCC-366 | 0.284 | 0.392 | 0.0497 | 0.0318 | 0.0203 |
| HCC-827 | 0.537 | 0.247 | 0.316 | 0.184 | 0.156 |
| HOP-62 | 0.366 | 0.405 | 0.24 | 0.122 | 0.0817 |

| Cell Line | relative viability (first compound 0.001 µM) | relative viability (first compound 0.003162 µM) | relative viability (first compound 0.01 µM) | relative viability (first compound 0.03162 µM) | relative viability (first compound 0.1 µM) |
| --- | --- | --- | --- | --- | --- |
| LC-2-ad | 0.926 | 1.01 | 0.845 | 0.645 | 0.236 |
| LCLC-97TM1 | 0.169 | 0.143 | 0.12 | 0.126 | 0.0828 |
| LCLC-103H | 0.61 | 0.695 | 0.709 | 0.712 | 0.56 |
| LK-2 | 0.926 | 0.65 | 0.731 | 0.206 | 0.167 |
| LOU-NH91 | 0.787 | 0.762 | 0.578 | 0.466 | 0.358 |
| LU99A | 0.575 | 0.635 | 0.563 | 0.594 | 0.387 |
| LXF-289 | 0.644 | 0.683 | 0.611 | 0.205 | 0.147 |
| NCI-H23 | 0.277 | 0.179 | 0.121 | 0.12 | 0.1 |
| NCI-H322M | 0.47 | 0.327 | 0.394 | 0.382 | 0.385 |
| NCI-H358 | 0.11 | 0.107 | 0.0776 | 0.0818 | 0.0722 |
| NCI-H441 | 0.46 | 0.318 | 0.196 | 0.131 | 0.132 |
| NCI-H460 | 0.105 | 0.211 | 0.0498 | 0.0169 | 0.0076 |
| NCI-H520 | 0.848 | 0.752 | 0.159 | 0.143 | 0.144 |
| NCI-H596 | 0.918 | 0.593 | 0.392 | 0.336 | 0.321 |
| NCI-H647 | 0.404 | 0.286 | 0.117 | 0.0909 | 0.0535 |
| NCI-H650 | 0.809 | 0.469 | 0.126 | 0.141 | 0.129 |
| NCI-H661 | 0.568 | 0.606 | 0.464 | 0.281 | 0.223 |
